One test deals with V. cholerae. The note with it: previous studies (ref. 86); cited from earlier work.
Test [1] concerns campylobacter adherence to intestinal epithelial cells. The note with it: early studies (ref. 80); cited from earlier work.
The next test has as its system Campylobacter jejuni. The test can be described thus: Cohort of breastfed mother-infant pairs: milk oligosaccharide vs C. jejuni-associated diarrhea. The note with it: for Association of rates of C. jejuni diarrhea during breastfeeding with oligosaccharide as a percent of milk oligosaccharide: breastfed infants, 2′-FL P=0.004, LDFH-I P=0.047 (not persisting after controlling for 2′-FL). It counts as in vivo, human. From the text: (§1) A cohort of 316 mother-infant pairs was enrolled and monitored from birth to two years postpartum in San Pedro Martir, a transitional neighborhood of Mexico City. Enrollment was restricted to term, normal birthweight infants. This research was approved by institutional review boards in Mexico and Cincinnati. Written informed consent was obtained from mothers who participated. Infant illness and feeding history were collected by trained field workers who made weekly home visits. Milk samples were collected from mothers weekly in the first month, and monthly thereafter. Samples were collected in the morning by an experienced study nurse using an Egnell electric breast pump to obtain the complete content of one breast. Samples were transported on ice from the study household to the laboratory, where they were stored at −70° C. Infant stool samples were collected weekly with additional samples obtained whenever diarrhea occurred. Diarrhea samples were routinely tested for Campylobacter jejuni, diarrheagenic E. coli, Shigella, Salmonella, Aeromonas, and rotavirus, as detailed in previous publications (129, 136-138). […] Diarrhea episodes were defined throughout the study as three or more watery stools within a 24-hour period or loose-to-watery bowel movements that exceeded the child's usual daily stool frequency by two or more stools as determined by a study physician. […] Classification of disease severity was based on the standardized history of each diarrhea episode recorded by a study physician, and was blind to and independent of milk oligosaccharide analysis. Diarrhea was attributed to campylobacter or calicivirus if the pathogen was detected in a stool sample collected during or within seven days of an episode of diarrhea. […]
Milk samples were transported to Boston and analyzed as described previously(143). Milk oligosaccharides were isolated, perbenzoylated, and resolved by reversed-phase HPLC (C-8) with an acetonitrile/water gradient and detected at 229 nm. […]

A further test relates to calicivirus. The test can be described thus: Cohort of breastfed mother-infant pairs: milk oligosaccharide vs calicivirus-associated diarrhea. It counts as in vivo, human.
Text: as §1, with “thereafter.” for “thereafter. Samples were collected in the morning by an experienced study nurse using an Egnell electric breast pump to obtain the complete content of one breast. Samples were transported on ice from the study household to the laboratory, where they were stored at −70° C. Infant stool samples were collected weekly with additional samples obtained whenever diarrhea occurred. Diarrhea samples were routinely tested for Campylobacter jejuni, diarrheagenic E. coli, Shigella, Salmonella, Aeromonas, and rotavirus, as detailed in previous publications (129, 136-138).”
Milk samples were transported to Boston and analyzed as described previously(143). […]

The subject of another test is Campylobacter. The test can be described thus: Ex vivo inhibition of Campylobacter colonization of human intestinal mucosa. The note with it: FIG. 9B. The method, then:
FIGS. 9A and 9B are a pair of graphs depicting the results of an study showing inhibition of Campylobacter colonization in BALB/c mice fed with 2 mg of milk fucosylated oligosaccharides given during challenge with 10^4 and 10^8 CFU of bacteria (left). Ex vivo assays of inhibition of human gut colonization of Campylobacter with 2′-fucosyllactose (2′-FL) and milk fucosylated oligosaccharides (OS).

Test [2] deals with Campylobacter binding to FUT1-CHO cells. The test can be described thus: Inhibition of Campylobacter binding to FUT1-transfected CHO cells. The test is classed as cell-based, Campylobacter jejuni. The note with it: FIG. 7. From the text: α1,2-fucosyltransferase-transfected CHO cells (CHO-FUT1), α1,3/4-fucosyltransferase-transfected CHO cells (CHO-FUT3), and α1,3-fucosyltransferase-transfected CHO cells (CHO-FUT4), and parental CHO cells transfected with the vector pCDM7 lacking the α1,2 FUT gene (CHO-WT) can be used to test bacterial binding and bacterial/host cell agglutination. Parental CHO cells with the vectors are used as controls.
The binding of bacteria to CHO cells transfected with the human gene for α1,2-fucosyltransferase (FUT1), can be assessed by bacterial-cell association assay. […]
Ligands, such as α1,2-fucosyl ligands and homologs are tested for their ability to inhibit binding of campylobacter and V. cholerae strains to CHO-FUT1 cells. For molecules that is bind to H-2 ligands, including anti-H-2 monoclonal antibodies (anti-H-2 MAbs) and the lectins Ulex europaeus (UEA I) and Lotus tetragonolobus (Lotus), inhibition is measured on monolayers of CHO-FUT1 cells incubated in 8-well chamber slides for 1 h with each of the α1,2-fucosyl ligands before adding 100 μL of the bacterial suspension containing 1×10^8 bacteria/mL. […] In both assays, after a 3 h incubation at 37° C., wells are rinsed, lysed with 1% Triton X100, and CFU (colony forming units) of bacteria per well are determined. […]

As to `C[C@H](O)[C@@H](O)[C@@H](O)[C@H](O)C=O` [L-fucose], the “Inhibition of hemagglutination produced by V. cholerae with human O erythrocytes” value with V. cholerae is “inhibited”. Besides, the “Inhibition of campylobacter adherence to intestinal epithelial cells” value in test [1] is given as “inhibition”.

For the molecule Lacto-N-difucohexaose I [LDFH-I], the “Association of rates of C. jejuni diarrhea during breastfeeding with oligosaccharide as a percent of milk oligosaccharide” value in the test with Campylobacter jejuni is given as “directly associated”. Further, the “Association of calicivirus diarrhea during breastfeeding with oligosaccharide as a percent of milk oligosaccharide” value with calicivirus (breastfed infants, P=0.012, dose-dependent) is recorded as “inverse association”. Moreover, the “Calicivirus incidence in the high group compared to the low group” value with calicivirus (tertiles (n=31) of LDFH-I as percent of milk oligosaccharide: low <0.07, intermediate 0.07-0.11, high >0.12, FIG. 6B) is given as “significantly (P=0.02) less”.

As to 2-Fucosyllactose [2′-FL], the “Association of rates of C. jejuni diarrhea during breastfeeding with oligosaccharide as a percent of milk oligosaccharide” value in the test with Campylobacter jejuni was “inversely associated”. For the same molecule, the “Campylobacter incidence in the intermediate and high groups compared to the low group” value in the test on Campylobacter jejuni (tertiles (n=31) of 2′-FL as percent of milk oligosaccharide: low <0.29, intermediate 0.29-0.36, high >0.37, FIG. 6A) is recorded as “significantly (P<0.01) less”. Moreover, the “Inhibition of C. jejuni binding/colonization in human intestinal mucosa ex vivo” value with Campylobacter is “inhibits”.

B1: Ulex europaeus lectin: lectin that binds to H-2 ligands (protein, UniProt P22972 1-243, looked up)
Anti-H(O) lectin 1: SDDLSFKFKNFSQNGKDLSFQGDASVIETGVLQLNKVGNNLPDETGGIARYIAPIHIWNCNTGEVASFITSFSFFMETSANPKAATDGLTFFLAPPDSPLRRAGGYFGLFEDTKDNDSSYQTVAVEFDTIGSPVNFDDPGFPHIGIDVNRVKSINAERWNKRYGLNNVANVEIIYEASSKTLTASLTYPSDQTSISVTSIVDLKEILPEWVSVGFSGGTYIGRQATHEVLNWYFTSNLINTNS
As for B1, the “Inhibition of bacterial binding to α1,2-fucosyltransferase (FUT1)-transfected CHO cells” value in test [2] is listed as “specifically inhibited”.
